Reference: patent US20260053811A1, “METHODS OF TREATING HYPERTENSION IN OBESE SUBJECTS” (Mineralys Therapeutics, Inc., priority 2022, published 2026)

System: hypertensive subjects
Assay: Seated automated office blood pressure (AOBP) in randomized, placebo-controlled, dose-ranging study
Assay type: in vivo, human
Details: Part 1
Description: A randomized, double-blinded, placebo-controlled, dose-ranging, multicenter study was conducted to evaluate the effect of orally administered Compound A HBr on blood pressure for the treatment of hypertension in male and female subjects ≥18 years of age.
The study consists of two parts. For enrollment into Part 1 of the study, a subject's value of plasma renin activity (PRA) must be ≤1 ng/mL/h based on morning measurement. If the value of PRA >1 ng/mL/h based on morning measurement, then subjects may be eligible to enter Part 2 of the study.
For Part 1, 163 enrolled subjects ≥18 years of age were randomized into 6 equal treatment groups (1:1:1:1:1:1) to 12.5 mg BID, 25 mg BID, 12.5 mg QD, 50 mg QD, 100 mg QD, or placebo. After a review of interim clinical data, the 2 lowest dose levels (12.5 mg QD and 12.5 mg BID) were stopped for future randomization due to a lack of consistent meaningful reduction of blood pressure, but the patients randomized to that point remained in the study through completion. Thus, after the review of interim clinical data, subjects were randomized into 4 equal treatment groups (1:1:1:1) to 25 mg BID, 50 mg QD, 100 mg QD, or placebo.
For Part 2, 36 enrolled subjects ≥18 years of age were randomized (5:1) to either 100 mg QD Compound A HBr or placebo such that the Compound A HBr treatment group consisted of approximately 30 subjects and the placebo treatment group will consist of approximately 6 subjects.
Subjects orally administered the assigned study drug (Compound A HBr or placebo) according to the assigned dosing regimen for 8 weeks beginning on Study Day 1. All subjects in Part 1 (regardless of dosing group) received BID dosing to preserve the integrity of the blind; active drug is administered as the morning dose for all QD dose groups. Subjects returned to the research facility or were seen by the clinical investigator or approved home health care professional at the end of Study Weeks 1, 2, 3, 4, 5, 6, 7, and 8 (±2 days) for protocol-defined efficacy and safety assessments and procedures, assessment of adverse events (AEs), and confirmation of compliance with study drug usage. Subjects also completed a telephone visit and blood pressure (BP) check at home approximately 3 days post last dose of study drug. Subjects attended up to 14 full clinic visits, including a pre-Screening visit, a Screening/start of Placebo Run-in visit, a second visit during Placebo Run-in, a clinic visit to initiate the ABPM procedure, a Randomization visit, 8 weekly visits during double-blind treatment, and an end-of-study visit scheduled 4 weeks after the last study treatment for final efficacy and safety assessments.
An automated oscillometric sphygmomanometer device was used to measure the subjects' systolic and diastolic blood pressure in office after approximately 5 minutes of rest in the seated position.
The primary endpoint is the change in office-measured (mean of last 2 of 5 unattended measurements using an automated oscillometric sphygmomanometer device after approximately 5 minutes of rest in the seated position) systolic blood pressure (SBP) from baseline to the end of Study Week 8.
Secondary endpoints of this study were: • (a) Change in 24-hour ambulatory blood pressure monitoring (ABPM) parameters (systolic and diastolic) from baseline to the end of Study Week 7. • (b) Change in office-measured SBP from baseline to the end of Study Weeks 1, 2, 3, 4, 5, 6, and 7. • (c) Change in office-measured diastolic blood pressure (DBP) from baseline to the end of Study Weeks 1, 2, 3, 4, 5, 6, 7, and 8. • (d) Proportion of subjects who achieve office-measured BP of ≤130/80 mm Hg by the end of Study Week 8.

[1] = 12.5 mg QD, Systolic Blood Pressure Tertile at Baseline Low
[2] = 12.5 mg QD, Systolic Blood Pressure Tertile at Baseline Middle
[3] = 12.5 mg QD, Thiazide Diuretic Use at Baseline No
[4] = 12.5 mg QD, Thiazide Diuretic Use at Baseline Yes

CC(=O)N[C@H]1CC[C@H](NC(=O)CN2CCN(c3nncc(-c4ccc(C)cc4)n3)CC2)CC1 [Compound A HBr]
Mean (SD) Change from Baseline at Week 8 in Automated Office-Measured Systolic Blood Pressure (12.5 mg QD, Systolic Blood Pressure Tertile at Baseline High): −10.83 (23.91) mmHg
Mean (SD) Automated Office-Measured Systolic Blood Pressure at Wk 8 [1]: 131.17 (12.77) mmHg
Mean (SD) Change from Baseline at Week 8 in Automated Office-Measured Systolic Blood Pressure [1]: −3.75 (13.24) mmHg
Mean (SD) Automated Office-Measured Systolic Blood Pressure at Wk 8 [2]: 143.33 (22.23) mmHg
Mean (SD) Change from Baseline at Week 8 in Automated Office-Measured Systolic Blood Pressure [2]: −1.17 (21.80) mmHg
Automated Office-Measured Diastolic Blood Pressure, Week 8, Mean (SD) [3]: 88.11 (21.40) mmHg
Mean (SD) Automated Office-Measured Systolic Blood Pressure at Wk 8 [3]: 149.11 (26.02) mmHg
Mean (SD) Change from Baseline at Week 8 in Automated Office-Measured Diastolic Blood Pressure [3]: 1.56 (17.70) mmHg
Mean (SD) Change from Baseline at Week 8 in Automated Office-Measured Systolic Blood Pressure [3]: −5.83 (25.10) mmHg
Automated Office-Measured Diastolic Blood Pressure, Week 8, Mean (SD) [4]: 74.78 (8.58) mmHg
Mean (SD) Automated Office-Measured Systolic Blood Pressure at Wk 8 [4]: 132.44 (14.02) mmHg
Mean (SD) Change from Baseline at Week 8 in Automated Office-Measured Diastolic Blood Pressure [4]: −5.11 (6.26) mmHg
Mean (SD) Change from Baseline at Week 8 in Automated Office-Measured Systolic Blood Pressure [4]: −7.89 (14.31) mmHg
Mean (SD) Automated Office-Measured Systolic Blood Pressure at Wk 8 (25 mg BID, ACEi/ARB No): 123.67 (28.36) mmHg
Mean (SD) Change from Baseline at Week 8 in Automated Office-Measured Systolic Blood Pressure (25 mg BID, ACEi/ARB No): −19.17 (12.25) mmHg
Mean (SD) Automated Office-Measured Systolic Blood Pressure at Wk 8 (25 mg BID, ACEi/ARB Yes): 132.20 (15.32) mmHg
Mean (SD) Change from Baseline at Week 8 in Automated Office-Measured Systolic Blood Pressure (25 mg BID, ACEi/ARB Yes): −9.04 (14.04) mmHg
Mean (SD) Automated Office-Measured Diastolic Blood Pressure at Wk 8 (25 mg BID, ACEi/ARBs No): 68.67 (8.33) mmHg
Mean (SD) Change from Baseline at Week 8 in Automated Office-Measured Diastolic Blood Pressure (25 mg BID, ACEi/ARBs No): −10.33 (13.25) mmHg
Mean (SD) Automated Office-Measured Diastolic Blood Pressure at Wk 8 (25 mg BID, ACEi/ARBs Yes): 76.24 (13.40) mmHg
Mean (SD) Change from Baseline at Week 8 in Automated Office-Measured Diastolic Blood Pressure (25 mg BID, ACEi/ARBs Yes): −2.88 (11.56) mmHg
Mean (SD) Automated Office-Measured Diastolic Blood Pressure at Wk 8 (25 mg BID, AHTs 2): 79.31 (15.91) mmHg
Mean (SD) Automated Office-Measured Systolic Blood Pressure at Wk 8 (25 mg BID, AHTs 2): 136.92 (18.45) mmHg
Mean (SD) Change from Baseline at Week 8 in Automated Office-Measured Diastolic Blood Pressure (25 mg BID, AHTs 2): −2.12 (15.46) mmHg
Mean (SD) Change from Baseline at Week 8 in Automated Office-Measured Systolic Blood Pressure (25 mg BID, AHTs 2): −6.15 (13.68) mmHg
Mean (SD) Automated Office-Measured Diastolic Blood Pressure at Wk 8 (25 mg BID, AHTs ≥3): 72.07 (9.26) mmHg
Mean (SD) Automated Office-Measured Systolic Blood Pressure at Wk 8 (25 mg BID, AHTs ≥3): 126.40 (13.57) mmHg
Mean (SD) Change from Baseline at Week 8 in Automated Office-Measured Diastolic Blood Pressure (25 mg BID, AHTs ≥3): −5.03 (7.45) mmHg
Mean (SD) Change from Baseline at Week 8 in Automated Office-Measured Systolic Blood Pressure (25 mg BID, AHTs ≥3): −13.57 (13.83) mmHg
Mean (SD) Automated Office-Measured Diastolic Blood Pressure at Wk 8 (25 mg BID, Age 65-79 yr): 74.71 (17.26) mmHg
Mean (SD) Automated Office-Measured Systolic Blood Pressure at Wk 8 (25 mg BID, Age 65-79 yr): 133.86 (19.37) mmHg
Mean (SD) Change from Baseline at Week 8 in Automated Office-Measured Diastolic Blood Pressure (25 mg BID, Age 65-79 yr): −0.46 (14.22) mmHg
Mean (SD) Change from Baseline at Week 8 in Automated Office-Measured Systolic Blood Pressure (25 mg BID, Age 65-79 yr): −7.82 (14.88) mmHg
Mean (SD) Automated Office-Measured Diastolic Blood Pressure at Wk 8 (25 mg BID, Age <65 yr): 76.54 (7.57) mmHg
Mean (SD) Automated Office-Measured Systolic Blood Pressure at Wk 8 (25 mg BID, Age <65 yr): 127.38 (13.07) mmHg
Mean (SD) Change from Baseline at Week 8 in Automated Office-Measured Diastolic Blood Pressure (25 mg BID, Age <65 yr): −6.69 (8.06) mmHg
Mean (SD) Change from Baseline at Week 8 in Automated Office-Measured Systolic Blood Pressure (25 mg BID, Age <65 yr): −12.31 (13.78) mmHg
Mean (SD) Automated Office-Measured Diastolic Blood Pressure at Wk 8 (25 mg BID, Age ≥80 yr): 71.00 (NE) mmHg
Mean (SD) Automated Office-Measured Systolic Blood Pressure at Wk 8 (25 mg BID, Age ≥80 yr): 146.00 (NE) mmHg
Mean (SD) Change from Baseline at Week 8 in Automated Office-Measured Diastolic Blood Pressure (25 mg BID, Age ≥80 yr): −9.50 (NE) mmHg
Mean (SD) Change from Baseline at Week 8 in Automated Office-Measured Systolic Blood Pressure (25 mg BID, Age ≥80 yr): −14.00 (NE) mmHg
Mean (SD) Automated Office-Measured Diastolic Blood Pressure at Wk 8 (25 mg BID, BMI 25−30 kg/m^2): 78.89 (20.58) mmHg
Mean (SD) Change from Baseline at Week 8 in Automated Office-Measured Diastolic Blood Pressure (25 mg BID, BMI 25−30 kg/m^2): 1.11 (16.18) mmHg
Mean (SD) Automated Office-Measured Diastolic Blood Pressure at Wk 8 (25 mg BID, BMI <25 kg/m^2): 69.25 (9.50) mmHg
Mean (SD) Change from Baseline at Week 8 in Automated Office-Measured Diastolic Blood Pressure (25 mg BID, BMI <25 kg/m^2): −8.25 (7.63) mmHg
Mean (SD) Automated Office-Measured Diastolic Blood Pressure at Wk 8 (25 mg BID, BMI >30 kg/m^2): 75.00 (6.97) mmHg
